Experimental data as given in PubChem BioAssay AID1259340 (Broad Institute, 2017).
Activity calls are given as the source filed them.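 The calls were made as follows: active = AC50 no more than ten times the top concentration tested; inconclusive = flat fit with inhibition between 30% and 70%, or unusable fit; inactive = AC50 beyond ten times the top concentration.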

target: Caspase recruitment domain-containing protein 9 (Homo sapiens) + B-cell lymphoma/leukemia 10 (Homo sapiens) (UniProt Q9H257+O95999); experiment: disruptors of CARD9-BCL10 binding, dose response, selectivity assay for CARD9-TRIM62 disruptor project, cell lysate, HEK293FT lysates, Luminex bead ELISA (AID 1259340); details: not given
Sequence (O95999 whole entry, looked up, the tested form may be a part): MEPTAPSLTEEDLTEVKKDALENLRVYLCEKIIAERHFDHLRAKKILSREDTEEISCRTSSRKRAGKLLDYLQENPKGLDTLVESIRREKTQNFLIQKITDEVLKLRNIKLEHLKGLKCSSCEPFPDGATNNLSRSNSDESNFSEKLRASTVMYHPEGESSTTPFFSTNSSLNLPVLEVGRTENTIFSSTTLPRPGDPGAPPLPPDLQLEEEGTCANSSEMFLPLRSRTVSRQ
Sequence (Q9H257 whole entry, looked up, the tested form may be a part): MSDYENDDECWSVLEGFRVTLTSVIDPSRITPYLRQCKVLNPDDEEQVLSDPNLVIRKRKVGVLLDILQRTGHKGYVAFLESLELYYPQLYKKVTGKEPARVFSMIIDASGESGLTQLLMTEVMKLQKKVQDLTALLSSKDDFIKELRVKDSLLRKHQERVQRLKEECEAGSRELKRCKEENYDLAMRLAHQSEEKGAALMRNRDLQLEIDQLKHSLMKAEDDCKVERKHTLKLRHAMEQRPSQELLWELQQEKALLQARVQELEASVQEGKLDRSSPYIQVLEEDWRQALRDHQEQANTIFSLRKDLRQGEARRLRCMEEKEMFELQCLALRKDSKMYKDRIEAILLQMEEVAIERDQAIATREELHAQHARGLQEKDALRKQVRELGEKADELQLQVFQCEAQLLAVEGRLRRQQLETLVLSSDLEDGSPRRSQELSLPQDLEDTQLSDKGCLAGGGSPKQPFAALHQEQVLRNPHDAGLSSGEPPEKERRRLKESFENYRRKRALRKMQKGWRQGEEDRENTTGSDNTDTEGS

Row | SMILES | AC50
1 | O=C(Nc1nc(-c2ccco2)c(-c2ccco2)s1)c1ccc(F)cc1F | > 160 µM (inactive)
2 | CN(C)c1ccc(CN2C[C@H]3CC[C@@H]2CN(C(=O)c2ccncc2)C3)cn1 | > 160 µM (inactive)
3 | CC(=O)c1sc2nc(-c3ccco3)ccc2c1N | 26.1 µM
4 | C=CCNc1ncnc2c1CCN(C(=O)c1ccc(CSC)o1)CC2 | > 160 µM (inactive)
5 | Cc1cccc2nc(CSCc3ccco3)cn12 | > 160 µM (inactive)
6 | CCOc1ccccc1NC(=O)N1CCCC(c2nccn2CCOC)C1 (configuration not stated) | > 160 µM (inactive)
7 | O=[N+]([O-])c1cccc(-c2nnc3ccc4ccccc4n23)c1 | > 160 µM (inactive)
8 | O=C1C=C(c2ccccc2)Nc2ccccc2N1 | > 160 µM (inactive)
9 | O=C(COc1cccnc1[N+](=O)[O-])c1ccc(Cl)s1 | 40 µM
10 | O=C(COC(=O)c1cc(-c2cccs2)nc2ccccc12)NCc1ccco1 | > 160 µM (inactive)
11 | O=C(NC1CC1)c1cc(-c2ccco2)nc2ccccc12 | > 160 µM (inactive)
12 | COc1ccc(-c2nnc(-c3nc(Nc4ccc(NC(C)=O)cc4)c4ccccc4n3)o2)cc1 | 64.5 µM
13 | CC(=O)Nc1ccc(Nc2nc(-c3nnc(-c4cccc(C)c4)o3)nc3ccccc23)cc1 | 72.4 µM
14 | O=C(Nc1nc(-c2ccco2)c(-c2ccco2)s1)C1CCC1 | > 160 µM (inactive)
15 | COc1ccc2nc(-c3ccco3)c(-c3ccco3)nc2c1 | 39.2 µM
16 | Cc1ccc(-c2cc(C(=O)NCc3ccco3)c3ccccc3n2)o1 | 80.3 µM
17 | O=C1CS/C(=N\N=C\c2ccco2)N1c1ccccc1 | > 160 µM (inactive)
18 | O=C(Nc1nccs1)c1cc(-c2ccccn2)nc2c(Cl)cccc12 | 41.1 µM
19 | O=C(O)C1Oc2cc3ccccc3cc2O1 | > 160 µM (inactive)
20 | C[C@H](CO)N1C[C@H](C)[C@@H](CN(C)CC2CCCCC2)OCCCC[C@H](C)Oc2ccc(NS(=O)(=O)c3ccc(F)cc3)cc2C1=O | > 160 µM (inactive)
21 | O=C(NC1(C(F)(F)F)Oc2ccc(Cl)cc2O1)N1CCC2(CC1)OCCO2 (configuration not stated) | 74.8 µM
22 | COc1ccc(-n2c(C)c3c(OC)cccc(=O)c3c2C)cc1 | > 160 µM (inactive)
23 | CCc1ccc(Nc2nc(C(=O)NCc3ccc(N(C)C)cc3)nc3ccccc23)cc1 | 7.97 µM
24 | CCN1CCN(C(=O)c2cc(-c3ccco3)nc3ccccc23)CC1 | > 160 µM (inactive)
25 | Cc1nc(C)c(C(=O)Nc2ncc([N+](=O)[O-])s2)o1 | 66 µM

same assay, conditions: at 80 µM (top of the series)

Row | SMILES | activity change, negative = inhibition
26 | CC(=O)c1ccc(NC(=O)c2noc3c2CCC3)cc1 | inactive
27 | O=C(COC(=O)c1cc(-c2ccco2)nc2ccccc12)NCc1ccccc1 | inactive
28 | c1cn(CCc2noc(C3CCCC3)n2)c(-c2cc3n(n2)CCCNC3)n1 | inactive
29 | CCc1nc(OCc2ccco2)c2sc3nc4c(cc3c2n1)COC(C)(C)C4 | inactive
30 | CCn1ccnc1C1CCN(C(=O)CCn2c(C)nc3ccccc32)CC1 | inactive
31 | O=C(COC(=O)c1ccc(S(=O)(=O)NCc2ccco2)cc1)Nc1ccc(Cl)cn1 | inactive
32 | O=C(NCCc1ccco1)c1ccc(OCc2cn3ccccc3n2)cc1 | inactive
33 | Cc1ccc(C(=O)Nc2cnc(N3CCC(C(N)=O)(N4CCCCC4)CC3)c(C(=O)O)c2)cc1 | inactive
34 | CCOC(=O)C1CCN(C(=O)CN(Cc2ccccc2)S(C)(=O)=O)CC1 | inactive
35 | NC(=O)C1(N2CCCCC2)CCN(c2ncc(NC(=O)c3cccs3)cc2C(=O)O)CC1 | inactive
36 | CC1(C)Cc2ccccc2-c2nc(-c3ccccc3)oc(=O)c21 | inactive
37 | Cc1ccc(S(=O)(=O)Cc2ccc(C(=O)N3CCC4(CC3)OCCO4)o2)cc1 | inactive
38 | CCN1CCOC(=O)C1CC(=O)Nc1cccc(C)c1 (configuration not stated) | inactive
39 | Cc1ccc(N2NC(c3ccc(Br)cc3)=CCC2=O)cc1 | inactive
40 | O=C(Nc1nnc(-c2ccco2)s1)c1ccccc1 | inactive
41 | O=C(Nc1nc(-c2nc3ccccc3s2)cs1)c1ccco1 | inactive
42 | C[C@H](CO)N1C[C@H](C)[C@@H](CN(C)CC2CCCCC2)OCCCC[C@H](C)Oc2ccc(NS(C)(=O)=O)cc2C1=O | inactive
43 | NC(=O)C1(N2CCCCC2)CCN(c2ncc(NC(=O)c3ccc(Cl)cc3)cc2C(=O)O)CC1 | inactive
44 | COC[C@]1(O)CCN(C(=O)CCN(C)S(C)(=O)=O)CC1(C)C | inactive

Row | SMILES | activity change, negative = inhibition
45 | COCC(=O)N1CCCC2(CCN(CCN3CCCC3)C2=O)C1 (configuration not stated) | inactive
46 | CCCN1CCCn2nc(CNC(=O)[C@@H](N)Cc3ccc(O)cc3)cc2C1 | inactive
47 | CC(C(=O)N1CCCC1)N1CCN(c2ccccc2O)CC1 (configuration not stated) | inactive
48 | O=C(Cc1ccc(S(=O)(=O)N2CCOCC2)s1)Nc1nc2c(s1)CCCC2 | inactive
49 | COc1ccc(-c2ccc(CCC(=O)O)o2)cc1 | inactive
50 | NC(=O)C1(N2CCCCC2)CCN(c2ccc(NC(=O)c3ccccc3F)cc2C(=O)O)CC1 | inactive
51 | O=S(=O)(c1ccccc1)N1CC2CN(Cc3ccc(O)cc3)C2C1 (configuration not stated) | inactive
52 | Cc1cnc(C)c(N2CCN(C(=O)[C@H]3CC[C@@H](N)C3)CC2)n1 | inactive
53 | COCCC(=O)N1CCCC2(CCN(CCN3CCCC3)C2=O)C1 (configuration not stated) | inactive
54 | CC(C)(C)c1ccc(-c2nc(C#N)c(NCc3ccncc3)o2)cc1 | inactive
55 | Cc1ccc(-c2nn(-c3ccccc3)cc2CN(Cc2ccccc2)C(=O)CCC(=O)O)o1 | inactive
56 | O=[N+]([O-])c1ccc2nn(Cc3ccccc3)cc2c1 | inactive
57 | O=C(Nc1nc(-c2ccco2)c(-c2ccco2)s1)c1ccco1 | inactive
58 | N#CNc1nc(O)cc(=O)[nH]1 | inactive
59 | COc1ccc(S(=O)(=O)c2ccccc2)cc1NS(=O)(=O)c1cccc(C(=O)O)c1 | inactive
60 | NC(=O)C1(N2CCCCC2)CCN(c2ncc(NC(=O)c3ccccc3)cc2C(=O)O)CC1 | inactive
61 | CCCc1oc(C(=O)O)cc1CN | inactive
62 | CCCc1cc(C(=O)N2CC[C@H]3CNC[C@H]32)n(C)n1 | inactive
